SMILES strings stand for the structures.

Sequence of Neuraminidase (B4URF0 whole entry): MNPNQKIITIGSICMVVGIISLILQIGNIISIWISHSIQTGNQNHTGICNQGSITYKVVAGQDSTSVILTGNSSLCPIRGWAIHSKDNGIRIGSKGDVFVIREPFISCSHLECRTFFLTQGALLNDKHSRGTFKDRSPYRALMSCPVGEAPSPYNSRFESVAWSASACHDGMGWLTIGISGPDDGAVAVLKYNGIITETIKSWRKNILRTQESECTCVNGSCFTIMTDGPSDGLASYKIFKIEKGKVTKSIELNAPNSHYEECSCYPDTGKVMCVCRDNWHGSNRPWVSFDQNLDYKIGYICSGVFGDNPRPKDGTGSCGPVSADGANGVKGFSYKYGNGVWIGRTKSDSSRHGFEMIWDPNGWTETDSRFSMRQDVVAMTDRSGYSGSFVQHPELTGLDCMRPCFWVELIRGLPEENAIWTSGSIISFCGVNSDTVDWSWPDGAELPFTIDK

This assay concerns the target Neuraminidase (Influenza A virus, UniProt B4URF0). It is filed as cell-based, Influenza A virus (A/WSN/1933(H1N1)), HEK293.
On to `CCCCCCOP(=O)(O)[C@H]1C[C@@H](NC(=N)N)[C@H]([C@@H](NC(C)=O)C(CC)CC)[C@@H]1O`, for which the IC50 (in general, the concentration at which inhibition is half-maximal) is 0.5 nM.

The molecule `CCCCCCOP(=O)(O)C1=C[C@@H]([C@@H](NC(C)=O)C(CC)CC)[C@H](NC(=N)N)C1` had a half-maximal inhibitory concentration (IC50) of 1.5 nM.

In turn, `CCOP(=O)(O)[C@@H]1C[C@@H]([C@@H](NC(C)=O)C(CC)CC)[C@H](NC(=N)N)C1` gave an IC50 of 1 nM.

On to `CCC(CC)[C@H](NC(C)=O)[C@@H]1C[C@@H](P(=O)(O)O)C[C@H]1NC(=N)N`, for which it took 2.9 nM to reach half-maximal inhibition (IC50).

With `CCCCCCOP(=O)(O)[C@@H]1C[C@@H]([C@@H](NC(C)=O)C(CC)CC)[C@H](NC(=N)N)C1`, the IC50 stood at 1.6 nM.

Consider `CCOP(=O)(O)[C@H]1C[C@@H](NC(=N)N)[C@H]([C@@H](NC(C)=O)C(CC)CC)[C@@H]1O`, for which the IC50 turned out to be 0.9 nM.

Source of the values: ChEMBL document CHEMBL3817747 (J Med Chem, 2016).
